Source: ChEMBL document CHEMBL1201862, “PubChem BioAssay data set” (2004)
Activity calls are given as the source filed them.

Tests used:
[1] = target: T1, Sentrin-specific protease 1 (Homo sapiens, UniProt Q9P0U3); assay: potency of human SENP1 inhibitors, dose response, biochemical, kinetic FRET (AID 651697); format: functional; conditions: read-out: IC50_Mean
T1 sequence (Q9P0U3 whole entry): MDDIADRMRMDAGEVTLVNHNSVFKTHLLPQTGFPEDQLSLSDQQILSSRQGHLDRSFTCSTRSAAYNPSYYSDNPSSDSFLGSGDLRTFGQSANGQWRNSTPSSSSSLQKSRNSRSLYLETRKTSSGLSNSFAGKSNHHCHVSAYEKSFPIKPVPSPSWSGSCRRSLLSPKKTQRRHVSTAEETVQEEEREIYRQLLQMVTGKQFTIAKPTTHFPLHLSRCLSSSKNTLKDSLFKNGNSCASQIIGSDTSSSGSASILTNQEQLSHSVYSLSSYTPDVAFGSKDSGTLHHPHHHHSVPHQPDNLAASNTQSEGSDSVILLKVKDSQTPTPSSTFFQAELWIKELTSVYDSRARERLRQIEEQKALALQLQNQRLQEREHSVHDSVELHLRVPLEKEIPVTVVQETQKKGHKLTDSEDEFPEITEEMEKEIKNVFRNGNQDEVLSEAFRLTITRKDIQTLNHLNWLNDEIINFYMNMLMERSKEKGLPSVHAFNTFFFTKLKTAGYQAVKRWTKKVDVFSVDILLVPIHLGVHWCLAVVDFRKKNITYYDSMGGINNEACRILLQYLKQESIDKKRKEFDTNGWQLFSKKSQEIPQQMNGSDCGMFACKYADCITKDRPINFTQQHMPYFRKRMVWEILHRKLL

[2] = target: T2, Corticotropin-releasing factor receptor 2/Corticotropin-releasing factor-binding protein (Homo sapiens, UniProt P24387+Q13324); assay: activators of CRF receptor 2 with binding protein – uHTS hits, confirmation (AID 602473); format: functional; conditions: read-out: EC50_Mean
T2 sequence (Q13324 whole entry): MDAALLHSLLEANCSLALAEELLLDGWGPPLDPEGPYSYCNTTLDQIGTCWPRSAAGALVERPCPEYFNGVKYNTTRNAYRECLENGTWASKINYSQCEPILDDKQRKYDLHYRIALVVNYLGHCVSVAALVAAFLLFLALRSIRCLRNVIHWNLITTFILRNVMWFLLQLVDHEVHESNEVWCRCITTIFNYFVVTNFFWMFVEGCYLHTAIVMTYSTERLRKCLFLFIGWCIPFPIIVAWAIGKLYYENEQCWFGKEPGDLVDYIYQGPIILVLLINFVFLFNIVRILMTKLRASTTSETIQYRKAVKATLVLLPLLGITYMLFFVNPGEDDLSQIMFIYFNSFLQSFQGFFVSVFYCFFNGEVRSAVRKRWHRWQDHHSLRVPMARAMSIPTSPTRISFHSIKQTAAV
T2 sequence (P24387 whole entry): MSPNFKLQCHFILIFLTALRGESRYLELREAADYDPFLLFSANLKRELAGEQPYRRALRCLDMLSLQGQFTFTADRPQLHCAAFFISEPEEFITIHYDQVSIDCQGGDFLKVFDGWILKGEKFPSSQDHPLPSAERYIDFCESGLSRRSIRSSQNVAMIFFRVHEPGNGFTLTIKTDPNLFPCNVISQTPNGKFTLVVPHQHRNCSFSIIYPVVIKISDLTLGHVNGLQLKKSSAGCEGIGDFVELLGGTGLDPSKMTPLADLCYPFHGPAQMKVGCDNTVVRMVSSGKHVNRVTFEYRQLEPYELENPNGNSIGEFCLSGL

[3] = target: T1, Sentrin-specific protease 1; assay: Dose response confirmation of small molecule inhibitors of the catalytic domain of the SUMO protease, SENP1 in a FRET assay.; format: functional; conditions: read-out: IC50_Mean
[4] = inhibitors of HIV Env-driven cell fusion, dose response, cherry-pick (AID 652057); format: functional, cell-based
cells [5] = format: functional, cell-based
[6] = off-target signal loss in HeLa-CEM21 co-culture – HeLa F-luc CTL cells, cherry-picked, counter-screen for HIV-1 Env fusion inhibitor project, dose response (AID 652040); format: functional, cell-based;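 also: potency for signal decrease marking cytotoxic or nonspecific inhibition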
[7] = ZM109 Env clade C HIV-1 fusion inhibitors, dose response, HeLa effector, CEM target cells, luciferase, cherry-pick (AID 652058); format: functional, cell-based
[8] = inhibitors of clade B AD8 Env fusion, dose response, cell-based, cherry-pick (AID 652062); format: functional;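 also: luciferase signal from cell-cell fusion driven by HIV-1 clade B AD8 Env; potency is for inhibitors of fusion seen as a drop in luminescence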
HEK293 = assay: inhibitors of LMP1-driven NF-kB reporter, dose response, cell-based, HEK293, luciferase, cherry-pick (AID 588343); format: functional; conditions: Homo sapiens
cells [9] = format: functional, cell-based; remark: listed apart in the source
Beta-lactamase [10] = target: T3, Beta-lactamase (Pseudomonas aeruginosa, UniProt Q79MP6); assay: […] counterscreen for selective VIM-2 inhibitors: dose response biochemical high throughput screening assay to identify inhibitors of IMP-1 metallo-beta-lactamase.
Beta-lactamase [11] = target: Beta-lactamase (Salmonella choleraesuis (strain SC-B67), UniProt Q5J463); assay: Epi-absorbance-based counterscreen for selective VIM-2 inhibitors: dose response biochemical high throughput screening assay to identify inhibitors of TEM-1 serine-beta-lactamase.
Beta-lactamase [12] = target: T3, Beta-lactamase; assay: IMP-1 metallo-beta-lactamase inhibitors, dose response, selectivity assay for VIM-2 inhibitor project, biochemical, epi-absorbance (AID 1920)
[13] = target: T4, Short transient receptor potential channel 4 (Mus musculus, UniProt Q9QUQ5); assay: mouse TRPC4 channel inhibitors, dose response, cell-based, HEK293 TRPC4/mu-opioid, Fluo-4 calcium (AID 434942); format: functional;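 also: potency of inhibitors blocking the TRPC4 calcium response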
T4 sequence (Q9QUQ5 whole entry): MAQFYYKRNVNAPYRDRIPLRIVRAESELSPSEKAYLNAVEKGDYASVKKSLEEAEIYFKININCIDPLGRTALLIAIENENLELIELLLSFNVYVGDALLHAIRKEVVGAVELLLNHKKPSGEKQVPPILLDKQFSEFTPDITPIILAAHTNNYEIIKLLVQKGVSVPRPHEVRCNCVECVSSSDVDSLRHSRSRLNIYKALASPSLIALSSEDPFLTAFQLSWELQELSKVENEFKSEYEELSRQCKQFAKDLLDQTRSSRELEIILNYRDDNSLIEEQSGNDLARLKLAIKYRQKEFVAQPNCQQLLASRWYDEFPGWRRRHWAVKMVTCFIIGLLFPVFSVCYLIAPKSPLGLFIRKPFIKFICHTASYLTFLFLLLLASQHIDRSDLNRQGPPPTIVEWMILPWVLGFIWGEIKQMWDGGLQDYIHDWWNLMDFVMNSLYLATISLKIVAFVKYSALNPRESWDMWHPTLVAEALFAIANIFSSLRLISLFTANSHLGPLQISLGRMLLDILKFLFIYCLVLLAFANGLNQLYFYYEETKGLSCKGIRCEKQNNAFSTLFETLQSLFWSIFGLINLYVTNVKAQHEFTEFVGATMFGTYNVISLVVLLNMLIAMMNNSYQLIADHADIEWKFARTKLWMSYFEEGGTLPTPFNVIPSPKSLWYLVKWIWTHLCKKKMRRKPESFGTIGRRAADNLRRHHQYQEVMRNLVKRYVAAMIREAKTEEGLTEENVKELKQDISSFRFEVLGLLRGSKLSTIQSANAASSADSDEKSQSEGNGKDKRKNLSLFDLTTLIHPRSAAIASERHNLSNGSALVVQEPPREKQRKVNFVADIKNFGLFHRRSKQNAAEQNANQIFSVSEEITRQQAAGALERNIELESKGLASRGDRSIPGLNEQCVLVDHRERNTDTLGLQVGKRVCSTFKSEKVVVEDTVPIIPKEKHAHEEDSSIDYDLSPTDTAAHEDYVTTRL

Phospholipase A2 = Phospholipase A2 (Homo sapiens, UniProt P04054); format: functional;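 also: confirmatory dose-response counterscreen on phospholipase A2, testing hits that came from an ultra-high-throughput screen for ATG4B inhibitors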
Cysteine protease ATG4B = target: T5, Cysteine protease ATG4B (Homo sapiens, UniProt Q9Y4P1); format: functional;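 also: Fluorescence-based dose-response confirmation assay measuring inhibition of ATG4B activity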
T5 sequence (Q9Y4P1 whole entry): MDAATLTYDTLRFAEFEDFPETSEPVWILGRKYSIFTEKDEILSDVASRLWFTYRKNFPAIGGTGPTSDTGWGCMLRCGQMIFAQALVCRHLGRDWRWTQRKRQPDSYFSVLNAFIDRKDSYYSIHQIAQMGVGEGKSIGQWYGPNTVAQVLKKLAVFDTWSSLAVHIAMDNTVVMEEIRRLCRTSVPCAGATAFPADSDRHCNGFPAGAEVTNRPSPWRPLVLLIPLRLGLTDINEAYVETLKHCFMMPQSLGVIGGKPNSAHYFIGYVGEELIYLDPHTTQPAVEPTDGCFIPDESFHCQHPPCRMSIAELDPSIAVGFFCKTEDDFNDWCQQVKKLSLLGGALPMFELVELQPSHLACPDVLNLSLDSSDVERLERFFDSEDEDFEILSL

[14] = target: Fructose-bisphosphate aldolase (Mycobacterium tuberculosis, UniProt P9WQA3); assay: Fluorescence-based biochemical high throughput dose response assay for inhibitors of the fructose-bisphosphate aldolase (FBA) of M. tuberculosis.; format: functional
[15] = target: T6, Methionyl-tRNA synthetase, putative (Trypanosoma brucei brucei, UniProt Q38C91); format: functional, Trypanosoma brucei brucei strain 927/4 GUTat10.1
T6 sequence (Q38C91 whole entry): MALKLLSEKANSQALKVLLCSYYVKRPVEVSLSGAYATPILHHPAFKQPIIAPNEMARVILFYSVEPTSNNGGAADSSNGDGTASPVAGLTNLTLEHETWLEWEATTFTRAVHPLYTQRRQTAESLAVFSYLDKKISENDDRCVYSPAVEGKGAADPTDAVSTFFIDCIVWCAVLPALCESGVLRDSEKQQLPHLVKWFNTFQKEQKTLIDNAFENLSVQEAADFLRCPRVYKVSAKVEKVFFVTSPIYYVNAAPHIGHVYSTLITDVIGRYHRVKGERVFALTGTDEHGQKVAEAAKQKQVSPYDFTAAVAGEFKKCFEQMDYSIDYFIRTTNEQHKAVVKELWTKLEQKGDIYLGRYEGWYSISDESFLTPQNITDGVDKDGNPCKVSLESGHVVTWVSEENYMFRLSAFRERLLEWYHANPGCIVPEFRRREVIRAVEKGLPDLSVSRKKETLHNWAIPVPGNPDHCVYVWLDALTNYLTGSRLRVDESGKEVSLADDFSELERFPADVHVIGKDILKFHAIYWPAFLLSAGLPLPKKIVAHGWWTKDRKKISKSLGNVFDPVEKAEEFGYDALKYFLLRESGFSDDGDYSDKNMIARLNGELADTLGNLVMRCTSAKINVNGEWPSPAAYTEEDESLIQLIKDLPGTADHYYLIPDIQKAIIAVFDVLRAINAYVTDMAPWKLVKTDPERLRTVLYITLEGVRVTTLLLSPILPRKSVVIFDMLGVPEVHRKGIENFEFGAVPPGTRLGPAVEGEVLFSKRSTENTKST

[16] = target: T6, Methionyl-tRNA synthetase, putative; format: functional, Trypanosoma brucei brucei strain 927/4 GUTat10.1; remark: listed apart in the source
[17] = Counterscreen for inhibitors of Trypanosoma brucei methionyl tRNA synthetase (MetRS): Luminescence-based cell-based high throughput dose response assay to identify compounds that are cytotoxic to Jurkat human T lymphocyte cells.; format: functional
[18] = HEK293 cell viability, dose response, counter-screen for EBV LMP1 inhibitor project, dry powder, set 2 (AID 624374); format: functional
[19] = Jurkat T cell cytotoxicity, dose response, cytotoxicity control for P. falciparum gametocyte viability project, luminescence (AID 1117277); format: functional, cell-based;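 also: potency reflects loss of cellular ATP meaning fewer viable cells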
[20] = P. falciparum late gametocyte killing, dose response, luminescence (AID 1117278); format: functional, cell-based;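 also: gametocytes exposed to compound for 24 hours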
Vero = assay: Vero cell toxicity, dose response, cytotoxicity control, plate reader, cherry-pick samples (AID 687020); format: functional, cell-based; conditions: Chlorocebus sabaeus
Cytochrome P450 3A4 = Cytochrome P450 3A4 (Homo sapiens, UniProt P08684);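 also: CYP3A4 tested as one member of a cytochrome P450 panel screen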
[21] = target: Heat shock protein HSP 90-alpha (Homo sapiens, UniProt P07900); format: functional, organism-based
[22] = target: Voltage-gated inwardly rectifying potassium channel KCNH2 (Homo sapiens, UniProt Q12809); conditions: Potency;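 also: confirmatory quantitative high-throughput screen measuring inhibition of hERG channel activity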
[23] = target: Long-chain-fatty-acid--AMP ligase FadD28 (Mycobacterium tuberculosis, UniProt P9WQ59); assay: Fluorescence polarization aasay to screen for inhibitors that compete for the binding of FadD28 to a bisubstrate Measured in Biochemical System Using Plate Reader - 2147-01_Inhibitor_Dose_CherryPick_Activity.; format: functional, Mycobacterium tuberculosis H37Rv
Sequence of Long-chain-fatty-acid--AMP ligase FadD28 (P9WQ59 whole entry): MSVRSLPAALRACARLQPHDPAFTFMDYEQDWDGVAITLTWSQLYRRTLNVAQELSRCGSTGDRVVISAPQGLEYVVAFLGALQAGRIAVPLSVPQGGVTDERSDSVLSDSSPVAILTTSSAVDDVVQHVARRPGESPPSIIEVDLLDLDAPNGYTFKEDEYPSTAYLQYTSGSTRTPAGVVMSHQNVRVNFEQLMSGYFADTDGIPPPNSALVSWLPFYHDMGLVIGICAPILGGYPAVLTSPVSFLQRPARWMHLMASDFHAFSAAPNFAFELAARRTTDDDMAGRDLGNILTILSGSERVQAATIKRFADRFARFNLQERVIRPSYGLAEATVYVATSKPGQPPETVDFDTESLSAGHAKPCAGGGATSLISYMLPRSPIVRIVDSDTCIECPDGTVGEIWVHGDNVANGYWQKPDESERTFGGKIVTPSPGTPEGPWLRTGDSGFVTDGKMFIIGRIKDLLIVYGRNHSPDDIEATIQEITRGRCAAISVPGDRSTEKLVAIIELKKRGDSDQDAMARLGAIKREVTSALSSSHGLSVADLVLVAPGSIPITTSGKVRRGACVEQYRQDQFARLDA

T3 sequence (Q79MP6 whole entry): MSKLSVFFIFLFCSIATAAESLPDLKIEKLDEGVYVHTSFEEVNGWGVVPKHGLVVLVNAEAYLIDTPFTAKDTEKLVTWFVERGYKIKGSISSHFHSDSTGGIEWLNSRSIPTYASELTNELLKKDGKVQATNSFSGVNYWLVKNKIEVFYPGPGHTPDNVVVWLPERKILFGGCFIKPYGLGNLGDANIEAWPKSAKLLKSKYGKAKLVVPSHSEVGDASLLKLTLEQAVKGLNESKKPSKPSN
Sequence of Fructose-bisphosphate aldolase (P9WQA3 whole entry): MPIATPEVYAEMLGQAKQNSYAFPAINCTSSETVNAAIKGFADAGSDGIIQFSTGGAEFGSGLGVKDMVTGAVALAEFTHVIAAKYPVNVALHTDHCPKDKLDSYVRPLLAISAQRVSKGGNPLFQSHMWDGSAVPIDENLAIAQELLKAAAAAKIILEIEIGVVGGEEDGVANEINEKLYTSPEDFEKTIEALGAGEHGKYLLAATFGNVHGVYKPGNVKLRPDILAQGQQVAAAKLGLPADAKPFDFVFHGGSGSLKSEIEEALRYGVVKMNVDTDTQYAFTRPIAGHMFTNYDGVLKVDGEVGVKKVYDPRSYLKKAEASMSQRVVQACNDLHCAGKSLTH
Sequence of Beta-lactamase (Salmonella choleraesuis (strain SC-B67), UniProt Q5J463) (Q5J463 whole entry): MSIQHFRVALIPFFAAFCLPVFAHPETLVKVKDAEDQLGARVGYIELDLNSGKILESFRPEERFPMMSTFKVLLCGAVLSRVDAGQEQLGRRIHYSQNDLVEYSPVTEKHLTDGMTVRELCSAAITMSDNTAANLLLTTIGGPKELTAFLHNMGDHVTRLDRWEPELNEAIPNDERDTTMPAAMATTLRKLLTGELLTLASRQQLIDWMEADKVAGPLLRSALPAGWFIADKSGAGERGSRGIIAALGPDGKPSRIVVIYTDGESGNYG
Sequence of Voltage-gated inwardly rectifying potassium channel KCNH2 (Q12809 whole entry): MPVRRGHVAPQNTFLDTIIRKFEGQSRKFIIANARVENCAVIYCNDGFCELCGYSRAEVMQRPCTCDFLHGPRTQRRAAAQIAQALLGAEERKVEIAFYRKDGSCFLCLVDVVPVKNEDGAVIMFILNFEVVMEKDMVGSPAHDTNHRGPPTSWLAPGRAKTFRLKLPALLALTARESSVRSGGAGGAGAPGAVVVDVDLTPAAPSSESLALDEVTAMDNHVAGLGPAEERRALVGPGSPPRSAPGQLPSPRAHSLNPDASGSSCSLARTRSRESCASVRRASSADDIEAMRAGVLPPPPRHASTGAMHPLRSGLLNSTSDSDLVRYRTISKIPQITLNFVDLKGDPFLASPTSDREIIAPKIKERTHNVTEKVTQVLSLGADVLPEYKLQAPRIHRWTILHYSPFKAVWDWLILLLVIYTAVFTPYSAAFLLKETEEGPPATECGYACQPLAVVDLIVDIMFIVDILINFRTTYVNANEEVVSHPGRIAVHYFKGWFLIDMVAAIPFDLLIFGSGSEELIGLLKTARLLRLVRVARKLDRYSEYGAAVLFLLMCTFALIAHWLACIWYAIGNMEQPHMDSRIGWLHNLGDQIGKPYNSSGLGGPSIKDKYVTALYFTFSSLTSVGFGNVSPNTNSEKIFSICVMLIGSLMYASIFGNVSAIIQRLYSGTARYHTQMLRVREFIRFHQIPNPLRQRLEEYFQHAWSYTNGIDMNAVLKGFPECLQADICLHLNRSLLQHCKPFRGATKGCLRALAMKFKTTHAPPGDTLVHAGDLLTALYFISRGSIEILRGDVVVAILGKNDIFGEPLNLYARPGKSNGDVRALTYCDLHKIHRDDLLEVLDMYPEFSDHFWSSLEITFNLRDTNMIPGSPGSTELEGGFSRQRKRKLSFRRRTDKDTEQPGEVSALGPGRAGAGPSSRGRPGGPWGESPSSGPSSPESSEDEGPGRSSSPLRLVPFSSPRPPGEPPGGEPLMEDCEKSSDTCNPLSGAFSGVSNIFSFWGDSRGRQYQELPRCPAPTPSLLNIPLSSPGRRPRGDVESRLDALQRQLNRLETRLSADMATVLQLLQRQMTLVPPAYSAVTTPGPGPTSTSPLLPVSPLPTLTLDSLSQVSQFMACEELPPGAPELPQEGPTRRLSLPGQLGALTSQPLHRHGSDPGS
Sequence of Cytochrome P450 3A4 (P08684 whole entry): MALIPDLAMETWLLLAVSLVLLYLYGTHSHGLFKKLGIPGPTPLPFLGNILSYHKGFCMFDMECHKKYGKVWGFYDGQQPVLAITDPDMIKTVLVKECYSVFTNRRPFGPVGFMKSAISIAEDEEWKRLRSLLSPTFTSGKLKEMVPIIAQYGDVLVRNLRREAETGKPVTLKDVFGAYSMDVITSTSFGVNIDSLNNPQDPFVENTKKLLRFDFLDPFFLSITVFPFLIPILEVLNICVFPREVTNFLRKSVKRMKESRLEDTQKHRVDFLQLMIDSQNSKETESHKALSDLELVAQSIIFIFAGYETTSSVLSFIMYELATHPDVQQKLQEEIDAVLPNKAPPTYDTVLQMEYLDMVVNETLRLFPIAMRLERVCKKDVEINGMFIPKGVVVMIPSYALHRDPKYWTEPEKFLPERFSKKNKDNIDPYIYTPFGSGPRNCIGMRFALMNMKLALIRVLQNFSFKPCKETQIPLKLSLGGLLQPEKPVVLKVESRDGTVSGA
Sequence of Phospholipase A2 (P04054 whole entry): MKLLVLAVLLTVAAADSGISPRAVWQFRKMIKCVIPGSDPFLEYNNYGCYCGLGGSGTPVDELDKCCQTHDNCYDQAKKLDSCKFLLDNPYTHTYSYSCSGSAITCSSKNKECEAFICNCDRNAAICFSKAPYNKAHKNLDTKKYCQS

CN(C)N=C(S)Nc1ccc2nc(-c3ccccn3)c(-c3ccccn3)nc2c1
IC50 [1]: 14.3 µM (active) | EC50 [2]: > 53 µM (inactive) | IC50 [3]: 9.92 µM (active)

NC(=O)c1sc2nccc(Nc3ccccc3)c2c1N
AC50 [4]: 1.37 µM (active) | EC50 (cells [5]): > 350 µM (not active) | AC50 [6]: 2.12 µM (active) | AC50 [7]: 0.726 µM (active) | AC50 [8]: < 0.26 µM (active) | AC50 (HEK293): 3.96 µM (active) | EC50 (cells [9]): > 350 µM (not active)

O=C1Nc2cc(C(=O)NCCCN3CCOCC3)ccc2S/C1=C/c1ccccc1F
IC50 (Beta-lactamase [10]): > 59.6 µM (inactive) | IC50 (Beta-lactamase [11]): > 59.6 µM (inactive) | IC50 (Beta-lactamase [12]): > 59.6 µM (inactive) | EC50 [13]: 2.66 µM (active)

CC(C)(C)C(=O)Nc1nnc(CSCc2ccccc2F)s1
IC50 (Beta-lactamase [10]): > 59.6 µM (inactive) | IC50 (Phospholipase A2): 6.65 µM (active) | IC50 (Cysteine protease ATG4B): 8.86 µM (active) | IC50 (Beta-lactamase [11]): > 59.6 µM (inactive) | IC50 (Beta-lactamase [12]): > 59.6 µM (inactive)

CCCC1OC23CCCCC2C(C#N)(C(=N)O3)C1(C#N)C#N (stereo not drawn)
IC50 [14]: > 9.99 µM (inactive)

Cc1ccc(NC(=O)CN(C)C(=O)Cc2ccc(Cl)cc2Cl)cc1
IC50 [15]: 6.81 µM (active) | IC50 [16]: 16.5 µM (inactive) | IC50 [17]: 83.3 µM (inactive)

C[C@H](NC(=O)C[C@@H]1C=C[C@@H](NC(=O)Cc2ccccn2)[C@@H](CO)O1)c1ccccc1
AbsAC35 [18]: 153.45 µM

CN1C(=O)c2cc(NC(=O)Cc3cccs3)ccc2OC[C@@H]2O[C@H](CC(=O)NCc3ccc(-c4ccccc4)cc3)CC[C@H]21
AbsAC35 [18]: 112.32 µM

O=[N+]([O-])c1ccc(-c2ccc(/C=N/c3cccc4ccccc34)o2)cc1
IC50 [14]: 8.15 µM (active)

COc1ccc(C2=Nn3c(nnc3-c3ccccc3OC)SC2)cc1OCC1CC1
IC50 [19]: 0.35 µM (active) | IC50 [20]: > 109 µM (inactive) | AC50 (Vero): 29.1 µM (active)

CCCCCCCC/C=C\CCCCCCCC(=O)NCCO [OLEOYLETHANOLAMIDE]
AC50 (Cytochrome P450 3A4): 31.6 µM (inconclusive) | AC50 [21]: 7.67 µM (active) | AC50 [22]: 35.5 µM (inconclusive) | AC50 [23]: > 100 µM (inactive)
